The results in this text go back to ChEMBL document CHEMBL4251606, “Design and characterization of α-lipoic acyl shikonin ester twin drugs as tubulin and PDK1 dual inhibitors” (Eur J Med Chem, 2018).

A word on the IC50: it is the concentration that inhibits the measured activity by half. A higher IC50 goes with a need for much substance.

Activity calls are given as the source filed them. The rule behind the calls is not given here.

The subject of one assay is HepG2. Put plainly: Antiproliferative activity against human HepG2 cells after 24 hrs by MTT assay. Type of assay: functional, cell-based. To be noted: HepG2, 24 h.
The next assay concerns MDA-MB-231. Put plainly: Antiproliferative activity against human MDA231 cells after 24 hrs by MTT assay. Conditions: MDA-MB-231, 24 h. It is filed as functional, cell-based.
Assay [1] relates to HeLa. Put plainly: Antiproliferative activity against human HeLa cells after 24 hrs by MTT assay. It is filed as functional, cell-based. In general terms: Tetrazolium dyes change colour on reduction, which living cells bring about.
For another assay, the system named is A549. The assay can be described thus: Antiproliferative activity against human A549 cells after 24 hrs by MTT assay. It is filed as functional, cell-based. To be noted: A549, 24 h.
Another assay concerns L02. The assay can be described thus: Antiproliferative activity against human LO2 cells after 24 hrs by MTT assay. Type of assay: cell-based. Conditions: L02, 24 h.
Another assay concerns HEK-293T. The assay can be described thus: Antiproliferative activity against human 293T cells after 24 hrs by MTT assay. Type of assay: cell-based.
Assay [2] has as its system HeLa. The assay can be described thus: Inhibition of microtubule polymerization in human HeLa cells at 0.5 uM after 24 hrs by rhodamine/DAPI staining-based confocal microscopic analysis. Type of assay: cell-based.
Assay [3] is filed under the species Homo sapiens. The assay can be described thus: Inhibition of microtubule polymerization (unknown origin) at 0.5 uM after 24 hrs by immunoblot. Background: Immunoblotting shows a protein as a band on a membrane.
The test system of assay [4] is HeLa. The assay can be described thus: Induction of microtubule polymerization in human HeLa cells assessed as bundle like formation at 0.5 uM after 24 hrs by rhodamine/DAPI staining-based confocal microscopic analysis. Type of assay: cell-based.
Assay [5] is filed under the species Homo sapiens. Put plainly: Induction of microtubule polymerization (unknown origin) at 0.5 uM after 24 hrs by immunoblot.
The target of assay [6] is [Pyruvate dehydrogenase (acetyl-transferring)] kinase isozyme 1, mitochondrial (Homo sapiens) (UniProt Q15118). Conditions: HeLa, 10 mM.
Description: Inhibition of PDK1 in human HeLa cells assessed as increase in PDH-E1 alpha expression at 10 mM by Western blot analysis
Assay [7] shares this target. Conditions: HeLa, 10 mM. The source holds these as a separate data set.
Description: Inhibition of PDK1 in human HeLa cells assessed as decrease in PDH-E1 alpha p-ser300 expression at 10 mM by Western blot analysis
For assay [8] the target is unchanged. Conditions: HeLa, 10 mM. This is another data set of the same source.
Description: Inhibition of PDK1 in human HeLa cells assessed as decrease in PDH-E1 alpha p-ser232 expression at 10 mM by Western blot analysis

With `CC(C)=CC[C@@H](OC(=O)CCCC[C@@H]1CCSC(c2ccc(Cl)cc2)S1)C1=CC(=O)c2c(O)ccc(O)c2C1=O` (stereo partly specified), the IC50 was 6.69 µM with HepG2; 17.7 µM in the assay with MDA-MB-231; 21.4 µM in the assay on HeLa [1]; 7.42 µM in the assay on A549; 83.6 µM in the assay with L02; 64.7 µM with HEK-293T.
Take `CC(C)=CC[C@@H](OC(=O)CCCC[C@@H]1CCSC(c2ccc(Cl)cc2Cl)S1)C1=CC(=O)c2c(O)ccc(O)c2C1=O` (stereo partly specified): the concentration for half-maximal inhibition (IC50) with HepG2 came to 17.8 µM; in the assay with MDA-MB-231, 28 µM; with HeLa [1], 9.17 µM; with A549, 17.5 µM; in the assay with L02 it was 121 µM; in the assay with HEK-293T, 90.1 µM.
On to `CC(C)=CC[C@@H](OC(=O)CCCC[C@@H]1CCSC(c2cccc(Cl)c2Cl)S1)C1=CC(=O)c2c(O)ccc(O)c2C1=O` (stereo partly specified), for which the 50% inhibitory concentration (IC50) was found to be 5.08 µM in the assay on HepG2; 25.8 µM in the assay with MDA-MB-231; 13.6 µM in the assay with HeLa [1]; 10.7 µM in the assay with A549; 119 µM in the assay with L02; 97.8 µM with HEK-293T.
With `CC(C)=CC[C@@H](OC(=O)CCCC[C@@H]1CCSC(C2CCCCC2)S1)C1=CC(=O)c2c(O)ccc(O)c2C1=O` (stereo partly specified), the IC50 in the assay on HepG2 amounted to 28.4 µM; in the assay on MDA-MB-231, 19.6 µM; in the assay with HeLa [1], 21.9 µM; in the assay with A549, 27.2 µM; in the assay with L02, 108 µM; in the assay on HEK-293T, 116 µM.
In the case of `CC(C)=CC[C@@H](OC(=O)CCCC[C@@H]1CCSC(c2cccc(C(F)(F)F)c2)S1)C1=CC(=O)c2c(O)ccc(O)c2C1=O` (stereo partly specified), the IC50 was determined as 4.53 µM in the assay on HepG2; 35.1 µM in the assay on MDA-MB-231; 20.2 µM in the assay on HeLa [1]; 19.6 µM in the assay on A549; 136 µM in the assay with L02; 83.9 µM in the assay on HEK-293T.
Regarding `COc1cc2c(c(OC)c1OC)-c1ccc(OC)c(=O)cc1[C@@H](NC(C)=O)CC2` [COLCHICINE], the IC50 in the assay on HepG2 came to 4.65 µM; in the assay on MDA-MB-231, 3.89 µM; in the assay on HeLa [1], 2.54 µM; in the assay on A549, 4.64 µM; in the assay on L02, 3.01 µM; in the assay with HEK-293T, 6.38 µM. In addition, the inhibition result in the assay on HeLa [2] and in the assay listed under Homo sapiens [3] was “Active” each time.
Consider `CC(C)=CC[C@@H](OC(=O)CCCC[C@@H]1CCSC(c2ccc(C(C)C)cc2)S1)C1=CC(=O)c2c(O)ccc(O)c2C1=O` (stereo partly specified), for which the concentration for half-maximal inhibition (IC50) in the assay with HepG2 came out at 25.9 µM; in the assay on MDA-MB-231 it was 8.97 µM; in the assay on HeLa [1], 17.5 µM; in the assay on A549, 19.6 µM; in the assay with L02, 85.6 µM; with HEK-293T, 108 µM.
For `COc1ccccc1C1SCC[C@@H](CCCCC(=O)O[C@H](CC=C(C)C)C2=CC(=O)c3c(O)ccc(O)c3C2=O)S1` (stereo partly specified), the 50% inhibitory concentration (IC50) was found to be 26.7 µM in the assay with HepG2; 24.2 µM in the assay with MDA-MB-231; 9.96 µM in the assay with HeLa [1]; 6.03 µM in the assay with A549; 116 µM with L02; 79.3 µM in the assay with HEK-293T.
On to `CC(C)=CC[C@@H](OC(=O)CCCC[C@@H]1CCSS1)C1=CC(=O)c2c(O)ccc(O)c2C1=O`, for which the IC50 was determined as 17.4 µM with HepG2; 25.9 µM with MDA-MB-231; 28.9 µM in the assay with HeLa [1]; 14.6 µM in the assay with A549; 103 µM in the assay with L02; 83.5 µM in the assay with HEK-293T.
In the case of `CC(C)=CC[C@@H](OC(=O)CCCC[C@@H]1CCSC(c2cccc(Br)c2)S1)C1=CC(=O)c2c(O)ccc(O)c2C1=O` (stereo partly specified), the IC50 came to 21.9 µM with HepG2; 26.8 µM in the assay with MDA-MB-231; 13.3 µM in the assay on HeLa [1]; 22.2 µM in the assay on A549; 93 µM with L02; 102 µM with HEK-293T.
As for `CC(C)=CC[C@@H](OC(=O)CCCC[C@@H]1CCSC(c2ccc(C(F)(F)F)cc2)S1)C1=CC(=O)c2c(O)ccc(O)c2C1=O` (stereo partly specified), the IC50 in the assay with HepG2 came to 11.8 µM; in the assay with MDA-MB-231, 9.57 µM; in the assay with HeLa [1], 23.4 µM; in the assay with A549, 10.2 µM; with L02 it was 90.9 µM; in the assay with HEK-293T, 73.4 µM.
For `CC(C)=CC[C@@H](OC(=O)CCCC[C@@H]1CCSC(c2ccc([N+](=O)[O-])cc2)S1)C1=CC(=O)c2c(O)ccc(O)c2C1=O` (stereo partly specified), the IC50 with HepG2 worked out at 20.4 µM; in the assay on MDA-MB-231, 16.2 µM; in the assay on HeLa [1], 26.9 µM; with A549, 22.2 µM; in the assay with L02, 96.2 µM; in the assay with HEK-293T it was 95.4 µM.
Turning to `CC(=O)O[C@H]1C(=O)[C@@]2(C)[C@H]([C@H](OC(=O)c3ccccc3)[C@]3(O)C[C@H](OC(=O)[C@H](O)[C@@H](NC(=O)c4ccccc4)c4ccccc4)C(C)=C1C3(C)C)[C@]1(OC(C)=O)CO[C@@H]1C[C@@H]2O`, the outcome in the assay with HeLa [4] and in the assay filed under Homo sapiens [5] was Active.
With `COc1ccc(C2SCC[C@@H](CCCCC(=O)O[C@H](CC=C(C)C)C3=CC(=O)c4c(O)ccc(O)c4C3=O)S2)cc1OC` (stereo partly specified), the IC50 in the assay with HepG2 came out at 4.34 µM; in the assay with MDA-MB-231 it was 16.7 µM; in the assay on HeLa [1], 21.9 µM; with A549, 19.3 µM; with L02, 99.3 µM; in the assay with HEK-293T it was 116 µM.
`COc1ccc(C2SCC[C@@H](CCCCC(=O)O[C@H](CC=C(C)C)C3=CC(=O)c4c(O)ccc(O)c4C3=O)S2)cc1` (stereo partly specified): the IC50 with HepG2 worked out at 30.1 µM; in the assay with MDA-MB-231, 18 µM; in the assay with HeLa [1], 16 µM; in the assay with A549, 20.7 µM; in the assay with L02, 94.8 µM; in the assay on HEK-293T it was 105 µM.
Take `CC(C)=CC[C@@H](OC(=O)CCCC[C@@H]1CCSC(c2ccccc2Cl)S1)C1=CC(=O)c2c(O)ccc(O)c2C1=O` (stereo partly specified): the IC50 in the assay on HepG2 was 11.3 µM; with MDA-MB-231 it was 20.6 µM; in the assay with HeLa [1], 16.5 µM; with A549 it was 16.8 µM; in the assay with L02, 95.8 µM; in the assay on HEK-293T it was 78 µM.
Consider `CC(C)=CC[C@@H](OC(=O)CCCC[C@@H]1CCSC(c2c(Cl)cccc2Cl)S1)C1=CC(=O)c2c(O)ccc(O)c2C1=O` (stereo partly specified), for which the IC50 in the assay with HepG2 amounted to 14.9 µM; with MDA-MB-231, 29.2 µM; in the assay with HeLa [1], 8.95 µM; in the assay on A549 it was 10.4 µM; in the assay with L02 it was 79.8 µM; with HEK-293T, 69.9 µM.
In the case of `CC(C)=CC[C@@H](OC(=O)CCCC[C@@H]1CCSC(c2ccccc2C)S1)C1=CC(=O)c2c(O)ccc(O)c2C1=O` (stereo partly specified), the IC50 came out at 24.3 µM in the assay with HepG2; 17.4 µM in the assay with MDA-MB-231; 14.9 µM with HeLa [1]; 10 µM with A549; 89.8 µM with L02; 102 µM with HEK-293T.
On to `O=C(O)C(Cl)Cl` [DICHLOROACETIC ACID], for which the IC50 in the assay on HepG2, in the assay with MDA-MB-231, with HeLa [1], in the assay on A549, in the assay on L02 and in the assay with HEK-293T was over 100 µM in each case. Besides, the inhibition entry in assay [6], in [7] and in assay [8] was “Active” throughout.
Take `CC(C)=CC[C@@H](OC(=O)CCCC[C@@H]1CCSC(c2ccc(C)cc2)S1)C1=CC(=O)c2c(O)ccc(O)c2C1=O` (stereo partly specified): the IC50 in the assay with HepG2 stood at 45.7 µM; with MDA-MB-231, 11.9 µM; in the assay on HeLa [1], 11.5 µM; in the assay with A549, 12.1 µM; with L02 it was 85.6 µM; with HEK-293T, 88.6 µM.
